From patent US20250129104A1, “7H-PYRROLO[2,3-D]PYRIMIDINES AND PREPARATION AND USES THEREOF” (BioSplice Therapeutics, Inc., priority 2021, published 2025)

The compounds below were run against recombinant DYRK1A kinase (Homo sapiens (Human), UniProt Q13627) (assay: DYRK1A kinase assay (Ser/Thr 18 peptide Z-lyte FRET assay)). Conditions: DYRK1A kinase activity; 15 μM ATP, 1 h room temperature; method text calls the value IC50.
Type: biochemical
Experimental: Representative compounds were screened using the assay procedure for DYRK1A kinase activity as described below.
Each compound was dissolved in DMSO as a 10 mM stock and used to prepare compound source plates. Serial dilution (1:3, 11-point dose-response curves from 10 μM to 0.00016 μM) and compound transfer was performed using the ECHO 550 (Labcyte, Sunnyvale, CA) into 1536-well black-walled round bottom plates (Corning).
The DYRK1A kinase assay was run using the Ser/Thr 18 peptide Z-lyte assay kit according to manufacturer's instructions (Life Technologies—a Division of Thermo-Fisher). This is a non-radioactive assay using fluorescence resonance energy transfer (FRET) between coumarin and fluorescein to detect kinase activity which is represented as a ratio of coumarin emission/fluorescein emission.
Briefly, recombinant DYRK1A kinase, ATP and Ser/Thr peptide 18 were prepared in 1× Kinase buffer to final concentrations of 0.25 μg/mL, 15 μM, and 4 μM respectively. The mixture was allowed to incubate with the representative compounds for one hour at room temperature. All reactions were performed in duplicate. Unphosphorylated (“0% Control”) and phosphorylated (“100% control”) forms of Ser/Thr 18 served as control reactions. Additionally, an 11-point dose-response curve of Staurosporine (1 uM top) was run to serve as a positive compound control.
After incubation, Development Reagent A was diluted in Development Buffer then added to the reaction and allowed to further incubate for one hour at room temperature. The plate was read at Ex 400 Em […] to detect the coumarin signal and Ex 400 Em 520 to measure the signal (EnVision Multilabel Plate Reader, PerkinElmer).
The Emission ratio (Em) was calculated as a ratio of the coumarin (C) emission signal (at 445 nm)/Fluorescein (F) emission signal (at 520 nm). The percent phosphorylation was then calculated using the following formula: [1−((Em ratio×F100%)−C100%)/((C0%−C100%)+(Em ratio×(F100%−F0%)))]. Dose-response curves were generated, and inhibitory concentration (IC50) values were calculated using non-linear regression curve fit in the Dotmatics' Studies Software (Bishops Stortford, UK).
An EC50 of 41.6 nM was found for `OCc1cnc2c(F)cc(-c3c[nH]c4nc(C5CC5)ncc34)cn12` [Compound 363, (6-(2-Cyclopropyl-7H-pyrrolo[2,3-d]pyrimidin-5-yl)-8-fluoroimidazo[1,2-a]pyridin-3-yl)methanol] in this work.
An EC50 of 174 nM was found for `CN1CCC(c2cnc3c(F)cc(-c4c[nH]c5nc(C6CC6)ncc45)cn23)CC1` [Compound 403, 2-Cyclopropyl-5-(8-fluoro-3-(1-methylpiperidin-4-yl)imidazo[1,2-a]pyridin-6-yl)-7H-pyrrolo[2,3-d]pyrimidine] in this work.
An EC50 of 9.5 nM was found for `C[C@H](Nc1ncc2c(-c3cnc4nccn4c3)c[nH]c2n1)C(F)(F)F` [Compound 464, (S)-5-(Imidazo[1,2-a]pyrimidin-6-yl)-N-(1,1,1-trifluoropropan-2-yl)-7H-pyrrolo[2,3-d]pyrimidin-2-amine] in this work.
An EC50 of 153 nM was found for `CC(C)(C)Cc1ncc2c(-c3cnc4nccn4c3)c[nH]c2n1` [Compound 490, 5-(Imidazo[1,2-a]pyrimidin-6-yl)-2-neopentyl-7H-pyrrolo[2,3-d]pyrimidine] in this work.
An EC50 of 123 nM was found for `Cn1cc2cc(-c3c[nH]c4nc(NCC(C)(C)F)ncc34)ccc2n1` [Compound 492, N-(2-Fluoro-2-methylpropyl)-5-(2-methyl-2H-indazol-5-yl)-7H-pyrrolo[2,3-d]pyrimidin-2-amine] in this work.
An EC50 of 4700 nM was found for `Cc1nc2c(F)cc(-c3c[nH]c4nc(NCC5CN(C)C5)ncc34)cc2n1C` [Compound 493, 5-(4-Fluoro-1,2-dimethyl-1H-benzo[d]imidazol-6-yl)-N-((1-methylazetidin-3-yl)methyl)-7H-pyrrolo[2,3-d]pyrimidin-2-amine] in this work.
An EC50 of 227 nM was found for `Cc1nc2c(F)cc(-c3c[nH]c4nc(N5CCC5)ncc34)cc2n1C(C)C` [Compound 494, 2-(Azetidin-1-yl)-5-(4-fluoro-1-isopropyl-2-methyl-1H-benzo[d]imidazol-6-yl)-7H-pyrrolo[2,3-d]pyrimidine] in this work.
An EC50 of 1.7 nM was found for `Cc1nc2c(F)cc(-c3c[nH]c4nc(NCC(C)C)ncc34)cc2n1C(C)C` [Compound 506, 5-(4-Fluoro-1-isopropyl-2-methyl-1H-benzo[d]imidazol-6-yl)-N-isobutyl-7H-pyrrolo[2,3-d]pyrimidin-2-amine] in this work.
An EC50 of 8.5 nM was found for `Cc1nc2c(F)cc(-c3c[nH]c4nc(NCC5(F)CCCCC5)ncc34)cc2n1C(C)C` [Compound 526, 5-(4-Fluoro-1-isopropyl-2-methyl-1H-benzo[d]imidazol-6-yl)-N-((1-fluorocyclohexyl)methyl)-7H-pyrrolo[2,3-d]pyrimidin-2-amine] in this work.
An EC50 of 9.3 nM was found for `Cc1nc2c(F)cc(-c3c[nH]c4nc(NCC5CCN(C)CC5)ncc34)cc2n1C(C)C` [Compound 529, 5-(4-Fluoro-1-isopropyl-2-methyl-1H-benzo[d]imidazol-6-yl)-N-((1-methylpiperidin-4-yl)methyl)-7H-pyrrolo[2,3-d]pyrimidin-2-a] in this work.
An EC50 of 40.8 nM was found for `Cc1nc2cc(F)c(-c3c[nH]c4nc(C5CC5)ncc34)cc2n1C(C)C` [Compound 539, 2-Cyclopropyl-5-(5-fluoro-1-isopropyl-2-methyl-1H-benzo[d]imidazol-6-yl)-7H-pyrrolo[2,3-d]pyrimidine] in this work.
An EC50 of 25.5 nM was found for `Cc1nc2ccc(-c3c[nH]c4nc(C5CC5)ncc34)c(F)c2n1C(C)C` [Compound 540, 2-Cyclopropyl-5-(7-fluoro-1-isopropyl-2-methyl-1H-benzo[d]imidazol-6-yl)-7H-pyrrolo[2,3-d]pyrimidine] in this work.
An EC50 of 17.9 nM was found for `Cc1nc2ncc(-c3c[nH]c4nc(CC(C)C)ncc34)cc2n1C(C)C` [Compound 585, 6-(2-Isobutyl-7H-pyrrolo[2,3-d]pyrimidin-5-yl)-1-isopropyl-2-methyl-1H-imidazo[4,5-b]pyridine] in this work.
An EC50 of 5.6 nM was found for `Cc1nc2ncc(-c3c[nH]c4nc(NCC(C)C)ncc34)cc2n1C(C)C` [Compound 594, N-Isobutyl-5-(1-isopropyl-2-methyl-1H-imidazo[4,5-b]pyridin-6-yl)-7H-pyrrolo[2,3-d]pyrimidin-2-amine] in this work.
An EC50 of 71.3 nM was found for `Cc1nc2cnc(-c3c[nH]c4ncncc34)cc2n1C(C)C` [Compound 627, 1-Isopropyl-2-methyl-6-(7H-pyrrolo[2,3-d]pyrimidin-5-yl)-1H-imidazo[4,5-c]pyridine] in this work.
An EC50 of 789 nM was found for `Cc1nc2cnc(-c3c[nH]c4nc(C5CCC5)ncc34)cc2n1C(C)C` [Compound 628, 6-(2-Cyclobutyl-7H-pyrrolo[2,3-d]pyrimidin-5-yl)-1-isopropyl-2-methyl-1H-imidazo[4,5-c]pyridine] in this work.
An EC50 of 42.8 nM was found for `Cc1nc2ccc(-c3c[nH]c4nc(NCC(C)(C)F)ncc34)nc2n1CC(F)F` [Compound 643, 5-(3-(2,2-Difluoroethyl)-2-methyl-3H-imidazo[4,5-b]pyridin-5-yl)-N-(2-fluoro-2-methylpropyl)-7H-pyrrolo[2,3-d]pyrimidin-2-amine] in this work.
An EC50 of 1.5 nM was found for `Cc1nc2ccc(-c3c[nH]c4nc(C5CC5)ncc34)nc2n1C(C)C` [Compound 676, 5-(2-Cyclopropyl-7H-pyrrolo[2,3-d]pyrimidin-5-yl)-3-isopropyl-2-methyl-3H-imidazo[4,5-b]pyridine] in this work.
An EC50 of 415 nM was found for `CC(C)(C)Nc1ncc2c(-c3ccc4ncnn4c3)c[nH]c2n1` [Compound 718, 5-([1,2,4]Triazolo[1,5-a]pyridin-6-yl)-N-(tert-butyl)-7H-pyrrolo[2,3-d]pyrimidin-2-amine] in this work.
An EC50 of 200 nM was found for `c1nc2ccc(-c3c[nH]c4nc(C5CC5)ncc34)cn2n1` [Compound 720, 6-(2-Cyclopropyl-7H-pyrrolo[2,3-d]pyrimidin-5-yl)-[1,2,4]triazolo[1,5-a]pyridine] in this work.
An EC50 of 852 nM was found for `c1nc2ccc(-c3c[nH]c4nc(C5CCC5)ncc34)cn2n1` [Compound 721, 6-(2-Cyclobutyl-7H-pyrrolo[2,3-d]pyrimidin-5-yl)-[1,2,4]triazolo[1,5-a]pyridine] in this work.
An EC50 of 48.1 nM was found for `CC(C)(C)CNc1ncc2c(-c3ccc4ncnn4c3)c[nH]c2n1` [Compound 728, 5-([1,2,4]Triazolo[1,5-a]pyridin-6-yl)-N-neopentyl-7H-pyrrolo[2,3-d]pyrimidin-2-amine] in this work.
An EC50 of 23 nM was found for `FC(F)(F)CNc1ncc2c(-c3ccc4ncnn4c3)c[nH]c2n1` [Compound 733, 5-([1,2,4]Triazolo[1,5-a]pyridin-6-yl)-N-(2,2,2-trifluoroethyl)-7H-pyrrolo [2,3-d]pyrimidin-2-amine] in this work.
An EC50 of 78.7 nM was found for `C[C@H](Nc1ncc2c(-c3ccc4ncnn4c3)c[nH]c2n1)C(F)(F)F` [Compound 735, (S)-5-([1,2,4]Triazolo[1,5-a]pyridin-6-yl)-N-(1,1,1-trifluoropropan-2-yl)-7H-pyrrolo[2,3-d]pyrimidin-2-amine] in this work.
An EC50 of 45.8 nM was found for `FC(F)(F)CCNc1ncc2c(-c3ccc4ncnn4c3)c[nH]c2n1` [Compound 736, 5-([1,2,4]Triazolo[1,5-a]pyridin-6-yl)-N-(3,3,3-trifluoropropyl)-7H-pyrrolo [2,3-d]pyrimidin-2-amine] in this work.
An EC50 of 1.9 nM was found for `FC(F)(CNc1ncc2c(-c3ccc4ncnn4c3)c[nH]c2n1)C1CC1` [Compound 743, 5-([1,2,4]Triazolo[1,5-a]pyridin-6-yl)-N-(2-cyclopropyl-2,2-difluoroethyl)-7H-pyrrolo[2,3-d]pyrimidin-2-amine] in this work.
An EC50 of 4.5 nM was found for `CN1CCN(c2cc(Nc3ncc4c(-c5ccc6ncnn6c5)c[nH]c4n3)ccn2)CC1` [Compound 755, 5-([1,2,4]Triazolo[1,5-a]pyridin-6-yl)-N-(2-(4-methylpiperazin-1-yl)pyridin-4-yl)-7H-pyrrolo[2,3-d]pyrimidin-2-amine] in this work.
An EC50 of 76.3 nM was found for `CC(C)(F)CNc1ncc2c(-c3cc(F)c4ncnn4c3)c[nH]c2n1` [Compound 774, N-(2-Fluoro-2-methylpropyl)-5-(8-fluoro-[1,2,4]triazolo[1,5-a]pyridin-6-yl)-7H-pyrrolo[2,3-d]pyrimidin-2-amine] in this work.
An EC50 of 72.1 nM was found for `CC(C)Nc1ncc2c(-c3ccn4ncnc4c3)c[nH]c2n1` [Compound 804, 5-([1,2,4]Triazolo[1,5-a]pyridin-7-yl)-N-isopropyl-7H-pyrrolo[2,3-d]pyrimidin-2-amine] in this work.
An EC50 of 18.8 nM was found for `C[C@@H](Nc1ncc2c(-c3ccn4ncnc4c3)c[nH]c2n1)C(F)(F)F` [Compound 806, (R)-5-([1,2,4]Triazolo[1,5-a]pyridin-7-yl)-N-(1,1,1-trifluoropropan-2-yl)-7H-pyrrolo[2,3-d]pyrimidin-2-amine] in this work.
An EC50 of 165 nM was found for `C[C@H](Nc1ncc2c(-c3ccn4ncnc4c3)c[nH]c2n1)C(F)(F)F` [Compound 807, (S)-5-([1,2,4]Triazolo[1,5-a]pyridin-7-yl)-N-(1,1,1-trifluoropropan-2-yl)-7H-pyrrolo[2,3-d]pyrimidin-2-amine] in this work.
An EC50 of 52.3 nM was found for `CN1CCN(c2ccc(CNc3ncc4c(-c5ccn6ncnc6c5)c[nH]c4n3)cn2)CC1` [Compound 808, 5-([1,2,4]Triazolo[1,5-a]pyridin-7-yl)-N-((6-(4-methylpiperazin-1-yl)pyridin-3-yl)methyl)-7H-pyrrolo[2,3-d]pyrimidin-2-amine] in this work.
